Reference: patent US20250179047A1, “5-[7-(3,4-DIHYDRO-1H-ISOQUINOLINE-2-CARBONYL)-1,2,3,4 TETRAHYDROISOQUINOLIN-6-YL]-1H-PYRROLE-3-CARBOXAMIDE DERIVATIVES, PHARMACEUTICAL COMPOSITIONS CONTAINING THEM AND THEIR USES AS PRO-APOPTOTIC AGENTS” (LES LABORATOIRES SERVIER, priority 2022, published 2025)
pIC50, pKi: −log10 of the molar value.

How the values were obtained:
BCL2 WT = BCL2 WT (Homo sapiens (Human), UniProt P10415); assay: TR-FRET competitive binding assay, BCL2 WT; conditions: Ki determined from IC50, read-out: TR_FRET EKI_Bcl2 WT
Summary of the method: (§1)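 Terbium-labelled N-terminal Halo-fusion BCL2 or BCLXL (E. coli), 0.5 nM, competed against fluorescein-labelled PUMA peptide (2 or 20 nM) for 2 h at 23° C in 50 mM Hepes pH 7.5, 150 mM NaCl, 5% DMSO. TR-FRET 520/495 nm ratio gave IC50 by four-parameter fit; Ki derived from IC50.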

KMS12PE Bcl2 D103V = assay: In vitro cytotoxicity CellTiterGlo 72 h, KMS12PE Bcl2 D103V; format: cell-based; conditions: Homo sapiens, KMS-12-PE, read-out: C50 nM, KMS12PE Bcl2 D103V
Protocol: (§2) KMS-12-PE (ACC 606) were purchased from the Leibniz-Institute DSMZ (Braunschweig, Germany) and were grown at 37° C. in a humidified atmosphere with 5% CO2 in media recommended by the suppliers. Lentiviral particles containing Bcl-2 wild type (also named “Bcl2 WT”), Bcl-2 mutated on G101V (also named “Bcl2 G101V”), Bcl-2 mutated on D103Y (also named “Bcl2 D103Y”), Bcl-2 mutated on D103V (also named “Bcl2 D103V”), Bcl-2 mutated on D103E (also named “Bcl2 D103E”), Bcl-2 mutated on F104I (also named “Bcl2 F104I”), Bcl-2 mutated on F104L (also named “Bcl2 F104L”), Bcl-2 mutated on D111A (also named “Bcl2 D111A”), Bcl-2 mutated on A113G (also named “Bcl2 A113G”), Bcl-2 mutated on R129L (also named “Bcl2 R129L”), Bcl-2 mutated on V156D (also named “Bcl2 V156D”) were cloned into pcLV-CMV-DEST-IRES-TagRFP. Lentiviral particles (1×10^6) were mixed with Polybrene at 8 μg/ml and transduced by spinoculation for 1 h at 32° C. and incubated overnight. After 8 days, TagRFP positive-cells were sorted by FACS. BCL2 expression was monitored by immunoblotting using anti-Flag and anti-BCL2 antibodies. Cells were seeded into 96-wells plates and treated with 1:3.16 serial dilution of compounds (9 different concentrations). Cell viability was assessed using CellTiterGlo reagent following treatment for 72 h. Results were normalized to the viability of cells without compounds (control wells). The C50 values were calculated using nonlinear regression algorithms in XCell software.

BCL2 D111A = BCL2 D111A (Homo sapiens, UniProt P10415, D111A); assay: TR-FRET competitive binding assay, BCL2 D111A; conditions: Ki determined from IC50, read-out: TR_FRET EKI_Bcl2 D111A
Summary of the method: as §1

KMS12PE Bcl2 D111A = assay: In vitro cytotoxicity CellTiterGlo 72 h, KMS12PE Bcl2 D111A; format: cell-based; conditions: Homo sapiens, KMS-12-PE, read-out: C50 nM, KMS12PE Bcl2 D111A
Protocol: as §2

KMS12PE = assay: In vitro cytotoxicity CellTiterGlo 72 h, KMS12PE; format: cell-based; conditions: Homo sapiens, KMS-12-PE, read-out: C50 nM, KMS12PE
Protocol: as §2

KMS12PE Bcl2 F104L = assay: In vitro cytotoxicity CellTiterGlo 72 h, KMS12PE Bcl2 F104L; format: cell-based; conditions: Homo sapiens, KMS-12-PE, read-out: C50 nM, KMS12PE Bcl2 F104L
Protocol: as §2

BCL2 G101V [1] = biological target: BCL2 G101V (Homo sapiens, UniProt P10415, G101V); assay: TR-FRET competitive binding assay, BCL2 G101V; conditions: BCL2 G101V; Ki determined from IC50; read-out: TR_FRET EKI_Bcl2 G101V
Summary of the method: as §1

BCL2 G101V [2] = assay: TR-FRET competitive binding assay, BCL2 G101V; set-up: species or system human; conditions: ratio Ki BCL2 G101V / Ki BCL2 WT
Summary of the method: as §1

KMS12PE Bcl2 R129L = assay: In vitro cytotoxicity CellTiterGlo 72 h, KMS12PE Bcl2 R129L; format: cell-based; conditions: Homo sapiens, KMS-12-PE, read-out: C50 nM, KMS12PE Bcl2 R129L
Protocol: as §2

BCL2 D103Y = BCL2 D103Y (Homo sapiens, UniProt P10415, D103Y); assay: TR-FRET competitive binding assay, BCL2 D103Y; conditions: Ki determined from IC50, read-out: TR_FRET EKI_Bcl2 D103Y
Summary of the method: as §1

pKi (BCL2 WT) | pKi (BCL2 D111A) | pKi (BCL2 G101V [1]) | TR_FRET EKI G101V/WT selectivty ratio (BCL2 G101V [2]) | pKi (BCL2 D103Y) | Structure (SMILES) | pIC50 (KMS12PE Bcl2 D103V) | pIC50 (KMS12PE Bcl2 D111A) | pIC50 (KMS12PE) | pIC50 (KMS12PE Bcl2 F104L) | pIC50 (KMS12PE Bcl2 R129L)
10.10 | 9.64 | 9.30 | 5.7 | 9.64 | Cc1c(N(C(=O)c2cc(-c3cc4c(cc3C(=O)N3Cc5ccccc5C[C@H]3CN3CCCCC3)CN(C(=O)Cc3ccc(OCCC5CCOCC5)cc3)CC4)n(C)c2C)c2ccc(O)cc2)cc(C#N)n1C [Example 66, N-(5-cyano-1,2-dimethylpyrrol-3-yl)-N-(4-hydroxyphenyl)-1,2-dimethyl-5-[2-(2-{4-[2-(oxan-4-yl)ethoxy]phenyl}acetyl)-7-{[(3S)-3-(piperidin-1-ylmethyl)-3,4-dihydro-1H-isoquinolin-2-yl]carbonyl}-3,4-dihydro-1H-isoquinolin-6-yl]pyrrole-3-carboxamide] | 8.65 | 8.80 | 9.70 | 7.62 | 8.88
10.22 | 9.70 | 9.52 | 5.1 | 9.85 | Cc1c(C(=O)N(c2ccc(O)cc2)c2cc(C#N)n(C(F)F)c2C)cc(-c2cc3c(cc2C(=O)N2Cc4ccccc4C[C@H]2CN2CCCCC2)CN(C(=O)Cc2ccc(OCCN4CCOCC4)cc2)CC3)n1C [Example 77] | 8.20 | 8.44 | 9.38 | 7.50 | 8.55
10.30 | 9.59 | 9.40 | 6.8 | 9.85 | Cc1c(C(=O)N(c2ccc(O)cc2)c2cc(C#N)n(C(F)F)c2C)cc(-c2cc3c(cc2C(=O)N2Cc4ccccc4C[C@H]2CN2CCCCC2)CN(C(=O)Cc2ccc(OCCN4CCOCC4)cc2F)CC3)n1C [Example 78, N-[5-cyano-1-(difluoromethyl)-2-methylpyrrol-3-yl]-5-[2-(2-{2-fluoro-4-[2-(morpholin-4-yl)ethoxy]phenyl}acetyl)-7-{[(3S)-3-(piperidin-1-ylmethyl)-3,4-dihydro-1H-isoquinolin-2-yl]carbonyl}-3,4-dihydro-1H-isoquinolin-6-yl]-N-(4-hydroxyphenyl)-1,2-dimethylpyrrole-3-carboxamide] | 8.80 | 8.94 | 9.92 | 8.06 | 9.05
10.05 | 9.66 | 9.40 | 4.3 | 9.49 | Cc1c(N(C(=O)c2cc(-c3cc4c(cc3C(=O)N3Cc5ccccc5C[C@H]3CN3CCC[C@H](C)C3)CN(C(=O)Cc3ccc(OCCN5CCOCC5)cc3F)CC4)n(C)c2C)c2ccc(O)cc2)cc(C#N)n1C [Example 107] | 8.71 | 8.87 | 9.82 | 8.15 | 8.95
